Data reported in ChEMBL document CHEMBL3045283, “Synthesis and biological activity of heterocycles from chalcone” (2008).
Activity calls are given as the source filed them. No cut-off for these calls is given here.

What was measured:
[1] = test system: Salmonella typhimurium; assay: Antibacterial activity against Salmonella enterica subsp. enterica serovar Typhimurium at 1000 ug/disc; format: functional, organism-based
[2] = test system: Escherichia coli; assay: Antibacterial activity against Escherichia coli at 1000 ug/disk; format: functional
[3] = test system: Bacillus subtilis; assay: Antibacterial activity against Bacillus subtilis at 1000 ug/disk; format: functional; details: read-out: IZ
[4] = test system: Staphylococcus aureus; assay: Antibacterial activity against Staphylococcus aureus at 1000 ug/disc; format: functional

Compound | inhibition zone (IZ) [1] | zone of inhibition at 1000 µg/disc ([2]; read-out: IZ) | zone of inhibition at 1000 µg/disc [3] | zone of inhibition at 1000 µg/disc ([4]; read-out: IZ) | inhibition zone (IZ) [2] | inhibition zone (IZ) [4]
O=c1oc2ccccc2c(O)c1C1=NNC(c2cn[nH]c2-c2ccccc2O)C1 (configuration not stated) | inactive | 12 mm | 25 mm | 20 mm |  | 
O=C(/C=C/c1coc2ccccc2c1=O)c1c(O)c2ccccc2oc1=O | inactive |  | 12 mm |  | inactive | inactive
O=c1oc2ccccc2c(O)c1C1=NN(c2ccccc2)C(c2cnn(-c3ccccc3)c2-c2ccccc2O)C1 (configuration not stated) | inactive |  | 10 mm |  | inactive | inactive
